Data reported in ChEMBL document CHEMBL4507259 (2021).

Columns and labels:
[1] = test system: Epidermal growth factor receptor (Homo sapiens), P00533 [L861Q]; settings: Compound concentration 1000.0 nM
[2] = target: Ribosomal protein S6 kinase alpha-6 (Homo sapiens) (UniProt Q9UK32); settings: Compound concentration 1000.0 nM
[3] = target: Mitogen-activated protein kinase kinase kinase 19 (Homo sapiens) (UniProt Q56UN5); settings: Compound concentration 1000.0 nM
[4] = target: Cyclin-dependent kinase 4 (Homo sapiens) (UniProt P11802); settings: Compound concentration 1000.0 nM
[5] = target: Activin receptor type-1B (Homo sapiens) (UniProt P36896); settings: Compound concentration 1000.0 nM
[6] = test system: Epidermal growth factor receptor (Homo sapiens), P00533 [UNDEFINED MUTATION]; settings: Compound concentration 1000.0 nM
[7] = target: Ribosomal protein S6 kinase alpha-5 (Homo sapiens) (UniProt O75582); settings: Compound concentration 1000.0 nM
[8] = target: Tyrosine-protein kinase ABL1 (Homo sapiens) (UniProt P00519); settings: Compound concentration 1000.0 nM
[9] = target: Dual specificity protein kinase CLK1 (Homo sapiens) (UniProt P49759); settings: Compound concentration 1000.0 nM
[10] = target: Muscarinic acetylcholine receptor M3 (Homo sapiens) (UniProt P20309); assay: M3 (h) CEREP ligand profiling; settings: filed as antagonist, Compound concentration 10.0 uM
[11] = target: Activin receptor type-2B (Homo sapiens) (UniProt Q13705); settings: Compound concentration 1000.0 nM
[12] = target: Melatonin receptor type 1B (Homo sapiens) (UniProt P49286); assay: MT2 (ML1B) (h) CEREP ligand profiling; settings: filed as agonist, Compound concentration 10.0 uM
[13] = target: 5-hydroxytryptamine receptor 2B (Homo sapiens, UniProt P41595); assay: 5-HT2B (h) CEREP ligand profiling; settings: filed as agonist, Compound concentration 10.0 uM
[14] = test system: Leucine-rich repeat serine/threonine-protein kinase 2 (Homo sapiens), Q5S007 [G2019S]; settings: Compound concentration 1000.0 nM
[15] = target: Rhodopsin kinase GRK7 (Homo sapiens) (UniProt Q8WTQ7); settings: Compound concentration 1000.0 nM
[16] = target: Serine/threonine-protein kinase DCLK3 (Homo sapiens) (UniProt Q9C098); settings: Compound concentration 1000.0 nM
[17] = target: Citron Rho-interacting kinase (Homo sapiens) (UniProt O14578); settings: Compound concentration 1000.0 nM
[18] = target: Sigma intracellular receptor 2 (Homo sapiens, UniProt Q5BJF2); assay: GPCRScan assay: inhibition of Sigma 2; design: radioligand conc. used [nm] 5.0, parental cells HEKT
[19] = target: Calcium/calmodulin-dependent protein kinase type 1 (Homo sapiens) (UniProt Q14012); settings: Compound concentration 1000.0 nM
[20] = target: Serine/threonine-protein kinase MAK (Homo sapiens) (UniProt P20794); settings: Compound concentration 1000.0 nM
[21] = target: T1, Muscarinic acetylcholine receptor M5 (Homo sapiens) (UniProt P08912); settings: Compound concentration 10.0 uM
T1 sequence (whole entry): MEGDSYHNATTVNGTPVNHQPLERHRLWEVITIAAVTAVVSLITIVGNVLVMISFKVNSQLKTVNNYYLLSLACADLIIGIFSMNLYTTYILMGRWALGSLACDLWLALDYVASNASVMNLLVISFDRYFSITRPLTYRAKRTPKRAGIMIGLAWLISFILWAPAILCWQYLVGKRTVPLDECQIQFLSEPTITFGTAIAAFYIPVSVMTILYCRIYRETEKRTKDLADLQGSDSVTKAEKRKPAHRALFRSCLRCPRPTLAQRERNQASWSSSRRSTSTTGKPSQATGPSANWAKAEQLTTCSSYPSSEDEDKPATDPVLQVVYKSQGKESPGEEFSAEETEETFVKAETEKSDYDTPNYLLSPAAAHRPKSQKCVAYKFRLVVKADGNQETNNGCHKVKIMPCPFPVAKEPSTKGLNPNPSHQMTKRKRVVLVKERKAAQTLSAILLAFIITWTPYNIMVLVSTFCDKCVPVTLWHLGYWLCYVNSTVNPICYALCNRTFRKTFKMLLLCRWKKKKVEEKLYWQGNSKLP

[22] = test system: Epidermal growth factor receptor (Homo sapiens), P00533 [L858R]; settings: Compound concentration 1000.0 nM
[23] = target: Activin receptor type-1-like (Homo sapiens) (UniProt P37023); settings: Compound concentration 1000.0 nM
[24] = target: Phosphatidylinositol 3-kinase catalytic subunit type 3 (Homo sapiens) (UniProt Q8NEB9); settings: Compound concentration 1000.0 nM
[25] = target: NUAK family SNF1-like kinase 1 (Homo sapiens) (UniProt O60285); settings: Compound concentration 1000.0 nM
[26] = target: Protein-tyrosine kinase 6 (Homo sapiens) (UniProt Q13882); settings: Compound concentration 1000.0 nM
[27] = target: Serine/threonine-protein kinase D3 (Homo sapiens) (UniProt O94806); settings: Compound concentration 1000.0 nM
[28] = target: Calcium/calmodulin-dependent protein kinase kinase 1 (Homo sapiens) (UniProt Q8N5S9); settings: Compound concentration 1000.0 nM
[29] = target: Cyclin-dependent kinase 4 (Homo sapiens) (UniProt P11802); settings: Compound concentration 1000.0 nM; remark: listed apart in the source
[30] = target: Homeodomain-interacting protein kinase 4 (Homo sapiens) (UniProt Q8NE63); settings: Compound concentration 1000.0 nM
[31] = target: Mitogen-activated protein kinase 4 (Homo sapiens) (UniProt P31152); settings: Compound concentration 1000.0 nM
[32] = test system: Tyrosine-protein kinase ABL1 (Homo sapiens), P00519 [F317L]; settings: Compound concentration 1000.0 nM
[33] = target: MAP kinase-interacting serine/threonine-protein kinase 1 (Homo sapiens) (UniProt Q9BUB5); settings: Compound concentration 1000.0 nM
[34] = target: Tyrosine-protein kinase TXK (Homo sapiens) (UniProt P42681); settings: Compound concentration 1000.0 nM
[35] = target: Platelet-derived growth factor receptor alpha (Homo sapiens) (UniProt P16234); settings: Compound concentration 1000.0 nM
[36] = target: Protein kinase C theta type (Homo sapiens) (UniProt Q04759); settings: Compound concentration 1000.0 nM
[37] = test system: Mast/stem cell growth factor receptor Kit (Homo sapiens), P10721 [L576P]; settings: Compound concentration 1000.0 nM
[38] = target: D(1B) dopamine receptor (Homo sapiens) (UniProt P21918); settings: Compound concentration 10.0 uM

Sigma intracellular receptor 2, sequence (Q5BJF2 whole entry): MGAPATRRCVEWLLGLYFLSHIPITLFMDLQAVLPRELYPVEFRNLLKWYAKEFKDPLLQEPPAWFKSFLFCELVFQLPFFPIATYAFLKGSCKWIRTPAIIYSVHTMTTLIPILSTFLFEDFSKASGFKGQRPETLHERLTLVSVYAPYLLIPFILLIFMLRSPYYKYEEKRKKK
Cyclin-dependent kinase 4 (Homo sapiens), sequence (P11802 whole entry): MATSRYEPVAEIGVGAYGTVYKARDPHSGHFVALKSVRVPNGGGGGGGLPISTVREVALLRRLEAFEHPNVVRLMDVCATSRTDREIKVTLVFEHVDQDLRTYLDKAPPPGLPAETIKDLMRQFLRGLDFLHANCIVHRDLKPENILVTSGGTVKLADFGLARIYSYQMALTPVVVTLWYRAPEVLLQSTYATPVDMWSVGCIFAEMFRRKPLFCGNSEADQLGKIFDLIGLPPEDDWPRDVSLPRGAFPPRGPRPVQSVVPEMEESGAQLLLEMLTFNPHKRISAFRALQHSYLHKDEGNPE
Serine/threonine-protein kinase DCLK3 (Homo sapiens), sequence (Q9C098 whole entry): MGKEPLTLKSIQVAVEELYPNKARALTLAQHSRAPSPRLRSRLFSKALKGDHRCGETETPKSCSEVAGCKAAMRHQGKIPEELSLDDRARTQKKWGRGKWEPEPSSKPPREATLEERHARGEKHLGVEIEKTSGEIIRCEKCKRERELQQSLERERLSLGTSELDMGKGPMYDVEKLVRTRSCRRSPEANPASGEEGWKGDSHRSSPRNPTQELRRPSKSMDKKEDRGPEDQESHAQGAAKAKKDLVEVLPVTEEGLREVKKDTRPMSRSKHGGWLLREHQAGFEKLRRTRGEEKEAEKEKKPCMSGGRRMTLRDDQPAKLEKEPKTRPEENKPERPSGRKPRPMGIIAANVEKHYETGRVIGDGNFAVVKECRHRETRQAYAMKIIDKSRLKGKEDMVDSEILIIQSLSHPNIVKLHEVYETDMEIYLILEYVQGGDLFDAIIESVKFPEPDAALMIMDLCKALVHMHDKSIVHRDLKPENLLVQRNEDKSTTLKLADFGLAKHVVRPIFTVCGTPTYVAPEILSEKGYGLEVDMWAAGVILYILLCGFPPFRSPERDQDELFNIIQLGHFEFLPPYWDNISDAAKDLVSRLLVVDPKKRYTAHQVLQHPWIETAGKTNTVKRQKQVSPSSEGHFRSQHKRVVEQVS
Homeodomain-interacting protein kinase 4 (Homo sapiens), sequence (Q8NE63 whole entry): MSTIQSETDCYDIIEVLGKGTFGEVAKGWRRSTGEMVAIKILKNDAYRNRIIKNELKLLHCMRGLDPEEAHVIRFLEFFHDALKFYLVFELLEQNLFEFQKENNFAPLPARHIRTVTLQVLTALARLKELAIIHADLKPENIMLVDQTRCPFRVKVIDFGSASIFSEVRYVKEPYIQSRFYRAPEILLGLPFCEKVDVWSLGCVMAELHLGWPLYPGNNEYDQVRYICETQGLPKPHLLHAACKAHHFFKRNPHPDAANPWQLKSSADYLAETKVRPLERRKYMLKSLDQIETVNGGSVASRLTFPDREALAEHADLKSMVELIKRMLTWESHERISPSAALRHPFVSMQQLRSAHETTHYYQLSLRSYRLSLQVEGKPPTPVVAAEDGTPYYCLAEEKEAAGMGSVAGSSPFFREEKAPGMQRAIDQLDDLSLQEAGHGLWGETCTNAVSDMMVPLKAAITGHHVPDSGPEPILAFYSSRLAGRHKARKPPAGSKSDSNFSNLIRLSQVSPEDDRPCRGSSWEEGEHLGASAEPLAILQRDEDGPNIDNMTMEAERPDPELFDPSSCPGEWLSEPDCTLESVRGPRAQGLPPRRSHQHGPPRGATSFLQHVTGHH
MAP kinase-interacting serine/threonine-protein kinase 1 (Homo sapiens), sequence (Q9BUB5 whole entry, looked up): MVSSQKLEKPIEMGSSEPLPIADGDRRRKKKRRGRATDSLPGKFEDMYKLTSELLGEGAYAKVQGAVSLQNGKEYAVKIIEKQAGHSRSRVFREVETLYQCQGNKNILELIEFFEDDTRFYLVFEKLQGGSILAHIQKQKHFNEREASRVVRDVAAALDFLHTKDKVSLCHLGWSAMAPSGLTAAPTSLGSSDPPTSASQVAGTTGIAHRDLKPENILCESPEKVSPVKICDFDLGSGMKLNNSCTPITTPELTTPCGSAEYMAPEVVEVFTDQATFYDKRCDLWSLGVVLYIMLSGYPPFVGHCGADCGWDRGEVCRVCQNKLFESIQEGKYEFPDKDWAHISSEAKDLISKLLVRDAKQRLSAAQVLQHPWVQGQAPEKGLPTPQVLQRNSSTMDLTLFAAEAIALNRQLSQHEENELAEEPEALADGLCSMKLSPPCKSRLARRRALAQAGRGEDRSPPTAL
Serine/threonine-protein kinase MAK (Homo sapiens), sequence (P20794 whole entry): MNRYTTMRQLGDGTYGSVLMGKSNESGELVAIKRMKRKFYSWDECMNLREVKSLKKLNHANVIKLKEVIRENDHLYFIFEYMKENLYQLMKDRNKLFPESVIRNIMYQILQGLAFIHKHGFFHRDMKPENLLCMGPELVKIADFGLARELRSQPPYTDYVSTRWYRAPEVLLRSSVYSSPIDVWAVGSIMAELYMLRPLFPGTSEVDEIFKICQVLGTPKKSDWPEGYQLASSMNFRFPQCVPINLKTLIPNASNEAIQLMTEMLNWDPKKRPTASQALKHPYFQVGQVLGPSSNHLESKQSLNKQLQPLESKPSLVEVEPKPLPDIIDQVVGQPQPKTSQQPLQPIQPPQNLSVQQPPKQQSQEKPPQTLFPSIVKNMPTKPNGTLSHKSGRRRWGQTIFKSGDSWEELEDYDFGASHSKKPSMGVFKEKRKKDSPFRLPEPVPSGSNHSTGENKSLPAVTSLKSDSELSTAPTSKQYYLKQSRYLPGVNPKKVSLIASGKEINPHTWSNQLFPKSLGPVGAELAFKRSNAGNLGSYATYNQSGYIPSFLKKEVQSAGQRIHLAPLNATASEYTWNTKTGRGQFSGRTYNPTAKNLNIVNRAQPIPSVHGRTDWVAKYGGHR
Mast/stem cell growth factor receptor Kit (Homo sapiens), P10721 [L576P], sequence (P10721 whole entry L576P): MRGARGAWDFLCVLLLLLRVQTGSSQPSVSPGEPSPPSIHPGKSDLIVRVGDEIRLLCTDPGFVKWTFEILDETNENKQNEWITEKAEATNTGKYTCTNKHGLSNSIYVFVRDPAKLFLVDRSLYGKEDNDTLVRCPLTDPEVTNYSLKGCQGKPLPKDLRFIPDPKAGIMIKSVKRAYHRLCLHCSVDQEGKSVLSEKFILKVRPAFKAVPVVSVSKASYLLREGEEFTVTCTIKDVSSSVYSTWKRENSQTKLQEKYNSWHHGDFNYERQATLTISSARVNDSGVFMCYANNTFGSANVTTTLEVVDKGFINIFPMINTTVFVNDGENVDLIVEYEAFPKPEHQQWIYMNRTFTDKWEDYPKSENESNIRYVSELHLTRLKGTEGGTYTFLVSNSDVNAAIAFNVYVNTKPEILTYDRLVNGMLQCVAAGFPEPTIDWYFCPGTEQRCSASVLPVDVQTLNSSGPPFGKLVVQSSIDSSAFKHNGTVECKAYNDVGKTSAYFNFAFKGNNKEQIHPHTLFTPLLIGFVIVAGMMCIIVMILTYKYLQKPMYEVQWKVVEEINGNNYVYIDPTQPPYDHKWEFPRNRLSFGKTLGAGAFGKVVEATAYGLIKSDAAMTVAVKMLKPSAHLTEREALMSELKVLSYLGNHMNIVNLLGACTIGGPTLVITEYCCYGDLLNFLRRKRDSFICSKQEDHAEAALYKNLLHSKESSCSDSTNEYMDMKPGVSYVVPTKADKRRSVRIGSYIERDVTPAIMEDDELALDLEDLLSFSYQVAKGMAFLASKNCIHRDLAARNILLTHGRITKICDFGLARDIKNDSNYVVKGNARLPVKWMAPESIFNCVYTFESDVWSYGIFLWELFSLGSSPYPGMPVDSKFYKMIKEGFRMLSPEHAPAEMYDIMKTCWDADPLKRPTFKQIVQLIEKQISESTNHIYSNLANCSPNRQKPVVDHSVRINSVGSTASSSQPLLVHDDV
Melatonin receptor type 1B (Homo sapiens), sequence (P49286 whole entry): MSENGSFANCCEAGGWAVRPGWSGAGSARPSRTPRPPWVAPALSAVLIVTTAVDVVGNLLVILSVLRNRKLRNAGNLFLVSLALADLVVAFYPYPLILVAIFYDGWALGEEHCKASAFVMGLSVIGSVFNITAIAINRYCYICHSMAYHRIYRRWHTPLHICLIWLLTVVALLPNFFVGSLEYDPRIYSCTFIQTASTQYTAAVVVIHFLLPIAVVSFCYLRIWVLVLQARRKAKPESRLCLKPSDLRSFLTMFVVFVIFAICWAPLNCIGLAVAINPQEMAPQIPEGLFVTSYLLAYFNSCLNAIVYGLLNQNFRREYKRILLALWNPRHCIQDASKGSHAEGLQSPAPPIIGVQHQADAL
5-hydroxytryptamine receptor 2B, sequence (P41595 whole entry): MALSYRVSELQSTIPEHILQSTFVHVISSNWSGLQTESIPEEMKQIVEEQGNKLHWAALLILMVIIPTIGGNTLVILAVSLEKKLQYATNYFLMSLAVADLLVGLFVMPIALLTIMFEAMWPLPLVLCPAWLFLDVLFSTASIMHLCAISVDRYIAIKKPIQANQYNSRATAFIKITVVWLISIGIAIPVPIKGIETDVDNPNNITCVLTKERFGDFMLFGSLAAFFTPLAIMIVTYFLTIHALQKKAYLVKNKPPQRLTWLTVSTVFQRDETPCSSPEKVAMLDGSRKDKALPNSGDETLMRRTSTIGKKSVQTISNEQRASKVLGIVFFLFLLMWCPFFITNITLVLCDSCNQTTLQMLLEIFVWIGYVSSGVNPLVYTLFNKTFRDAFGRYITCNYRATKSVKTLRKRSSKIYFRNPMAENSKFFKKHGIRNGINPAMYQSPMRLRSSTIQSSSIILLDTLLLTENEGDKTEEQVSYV

Row | Compound | residual activity [1] | residual activity [2] | residual activity [3] | residual activity [4] | residual activity [5] | residual activity [6] | residual activity [7] | residual activity [8] | residual activity [9] | inhibition [10] | residual activity [11] | inhibition [12] | inhibition [13] | residual activity [14] | residual activity [15] | residual activity [16] | residual activity [17] | Ki ([18]; read-out: Ki) | residual activity [19] | residual activity [20] | further results
1 | CNC(=O)Nc1ccc2c(c1)[C@@]1(CC2)OC(=O)N(CC(=O)N(Cc2ccc(F)cc2)[C@@H](C)C(F)(F)F)C1=O [A-486] | 100% | 100% | 73% | 73% | 100% | 85% | 74% | 84% | 82% | 0% | 100% | 8% | 5% | 100% | 85% | 81% | 100% | 3.27 µM | 100% | 100% | inhibition [21]: -2.77%; residual activity [22]: 100%; residual activity [23]: 78%; residual activity [24]: 96%; residual activity [25]: 88%; residual activity [26]: 90%; residual activity [27]: 100%; residual activity [28]: 100%; residual activity [29]: 75%; residual activity [30]: 100%; residual activity [31]: 98%; residual activity [32]: 78%; residual activity [33]: 94%; residual activity [34]: 100%; residual activity [35]: 83%; residual activity [36]: 89%; residual activity [37]: 81%; inhibition [38]: 20.5%
2 | CNC(=O)Nc1ccc2c(c1)CC[C@@]21OC(=O)N(CC(=O)N(Cc2ccc(F)cc2)[C@@H](C)C(F)(F)F)C1=O [A-485] | 94% | 84% | 78% | 55% | 86% | 64% | 97% | 72% | 69% | -5% | 96% | 12% | 73% | 100% | 83% | 83% | 92% | 5.53 µM | 95% | 84% | Ki ([18]; read-out: pKi (converted)): 5.13 µM; inhibition [21]: 2.39%; residual activity [22]: 96%; residual activity [23]: 72%; residual activity [24]: 88%; residual activity [25]: 94%; residual activity [26]: 87%; residual activity [27]: 100%; residual activity [28]: 70%; residual activity [29]: 91%; residual activity [30]: 97%; residual activity [31]: 84%; residual activity [32]: 77%; residual activity [33]: 67%; residual activity [34]: 78%; residual activity [35]: 93%; residual activity [36]: 71%; residual activity [37]: 100%; inhibition [38]: 21.1%
